Source: publication PMC7827014, “Synthetic Transition from Thiourea-Based Compounds to Tetrazole Derivatives: Structure and Biological Evaluation of Synthesized New N-(Furan-2-ylmethyl)-1H-tetrazol-5-amine Derivatives” (Molecules, 2021)
Values after ≈ are worked out from the molar mass of the structure shown. Like-named read-outs stand apart in the source and are kept apart here.

Legend:
[1] = tested on: S. epidermidis KR 4313 834/19; assay: MIC microdilution, clinical isolate; format: cell-based; conditions: Staphylococcus epidermidis, KR4313834/19
[2] = tested on: S. aureus 155/6; assay: MIC microdilution, clinical isolate; format: cell-based; conditions: Staphylococcus aureus
[3] = tested on: Caco-2; assay: MTT assay 72 h; format: cell-based; conditions: Homo sapiens; Caco-2, MTT 72 h, mean ± SD; read-out: IC50
Description: (§1) The cell viability was assessed by using an enzymatic conversion of 3-(4,5-dimethylthiazol-2-yl)-2,5-diphenyltetrazolium bromide salt (MTT) to insoluble formazan crystals by mitochondrial dehydrogenases, occurring in living cells. Cells were cultured in 96-well plates at a density of l × 10^4 cells per well, and cultured to adhere for 24 h at 37 °C in a CO2 incubator. After 24 h of incubation, culture medium was replaced with a fresh medium, then cells were treated with various concentrations of the compounds and incubated for 72 h at 37 °C in a CO2 incubator. Untreated cells were used as the control. Subsequently, MTT solution (0,5 mg/mL in free-serum medium) was added, and samples were incubated for 4 h at 37 °C in a CO2 incubator. Then, the medium was aspirated, and formed formazan crystals were solubilized by adding an isopropanol-DMSO mixture (1:1 vol). The intensity of the dissolved crystals was measured using a UVM 340 reader (ASYS Hitech GmbH, Austria), at a wavelength of 570 nm. Cell viability was presented as a percent of MTT reduced in treated cells versus control cells (incubated without tested compounds). The relative MTT level (%) was calculated as [A]/[B]×100, where [A] is the absorbance of the test sample, and [B] is the absorbance of the control sample containing the untreated cells. The IC50 value was estimated using CalcuSyn version 1.0. […]
(§2) Antiproliferative activity of tested compounds. Data are given as IC50 [µM] and SI.
(§3) Human immortal keratinocyte cell line from adult human skin (HaCaT), Human colorectal adenocarcinoma (CaCo-2), Human epithelial lung carcinoma cell line (A549) and Human melanoma cell line (HTB-140). Data are expressed as mean ± SD. The SI (Selectivity Index) was calculated for each compound using formula: SI = IC50 for normal cel line / IC50 cancer cel line.

[4] = tested on: A549; assay: MTT assay 72 h; format: cell-based, human; conditions: Homo sapiens; A549, MTT 72 h, mean ± SD; read-out: IC50
Description: as §1, §2, §3

[5] = tested on: HTB-140; assay: MTT assay 72 h; format: cell-based, human; conditions: Homo sapiens; HTB-140, MTT 72 h, mean ± SD
Description: as §1, §2, §3

[6] = tested on: HaCaT; assay: MTT assay 72 h; format: cell-based, human; conditions: Homo sapiens; HaCaT normal cells, MTT 72 h, mean ± SD; read-out: IC50
Description: as §1, §2, §3

[7] = tested on: S. epidermidis T 5501 851/19; assay: MIC microdilution, clinical isolate; format: cell-based; conditions: Staphylococcus epidermidis, T5501851/19
[8] = tested on: S. aureus NCTC 4163; assay: MIC microdilution, standard strain; format: cell-based; conditions: Staphylococcus aureus, NCTC4163; S. aureus NCTC 4163, 18 h, 35 °C; read-out: MIC
[9] = tested on: S. epidermidis KR 4358/2 840/19; assay: MIC microdilution, clinical isolate; format: cell-based; conditions: Staphylococcus epidermidis, KR4358/2840/19
[10] = tested on: hospital staphylococcal isolates; assay: MIC, panel of clinical staphylococcal isolates; format: cell-based
Description: (§4) Compounds were screened for their minimal inhibitory concentrations (MICs).
(§5) The antimicrobial assays were conducted using reference strains of bacteria derived from international microbe collections—American Type Culture Collection (ATCC) and National Collection of Type Culture (NCTC). […] The antimicrobial activity of compounds was expressed by minimum inhibitory concentration values (MICs), according to CLCI reference procedures with some modifications. MIC was tested by the two-fold serial microdilution method (in 96-well microtiter plates) on MH II liquid medium. […] The stock solution of tested compounds was prepared in DMSO, and diluted in sterile medium (to a maximum of 1% of solvent content). […] Clinical microorganisms used in this study were obtained from the collection of the Department of Pharmaceutical Microbiology, Medical University of Warsaw, Poland.

[11] = tested on: S. aureus ATCC 29213; assay: MIC microdilution, standard strain; format: cell-based; conditions: Staphylococcus aureus, ATCC29213; S. aureus ATCC 29213, 18 h, 35 °C; read-out: MIC
[12] = tested on: S. epidermidis ATCC 12228; assay: MIC microdilution, standard strain; format: cell-based; conditions: Staphylococcus epidermidis, ATCC12228; S. epidermidis ATCC 12228, 18 h, 35 °C; read-out: MIC
[13] = tested on: S. epidermidis KR 4243 829/19; assay: MIC microdilution, clinical isolate; format: cell-based; conditions: Staphylococcus epidermidis, KR4243829/19
[14] = tested on: E. coli ATCC 25922; assay: MIC microdilution, standard strain; format: cell-based; conditions: Escherichia coli, ATCC25922; E. coli ATCC 25922, 18 h, 35 °C; read-out: MIC
[15] = tested on: S. aureus T5595/69; assay: MIC microdilution, clinical isolate; format: cell-based; conditions: Staphylococcus aureus
[16] = tested on: S. aureus T5403/51; assay: MIC microdilution, clinical isolate; format: cell-based; conditions: Staphylococcus aureus
[17] = tested on: S. aureus T5384/48; assay: MIC microdilution, clinical isolate; format: cell-based; conditions: Staphylococcus aureus
[18] = tested on: M. tuberculosis H37Rv; assay: In vitro antitubercular MIC; format: cell-based; conditions: Mycobacterium tuberculosis, read-out: Minimal inhibitory concentration
[19] = tested on: E. hirae ATCC 10541; assay: MIC microdilution, standard strain; format: cell-based; conditions: Enterococcus hirae, ATCC10541; E. hirae ATCC 10541, 18 h, 35 °C; read-out: MIC
[20] = tested on: S. aureus 176/13; assay: MIC microdilution, clinical isolate; format: cell-based; conditions: Staphylococcus aureus
[21] = tested on: S. epidermidis T 5399 848/19; assay: MIC microdilution, clinical isolate; format: cell-based; conditions: Staphylococcus epidermidis, T5399848/19
[22] = tested on: S. aureus T5591/68; assay: MIC microdilution, clinical isolate; format: cell-based; conditions: Staphylococcus aureus
[23] = tested on: M. tuberculosis INH susceptible (Spec. 192); assay: In vitro antitubercular MIC; format: cell-based; conditions: Mycobacterium tuberculosis, read-out: Minimal inhibitory concentration
[24] = tested on: S. aureus T5241/46; assay: MIC microdilution, clinical isolate; format: cell-based; conditions: Staphylococcus aureus
[25] = tested on: S. epidermidis KR 4047 825/19; assay: MIC microdilution, clinical isolate; format: cell-based
[26] = tested on: standard bacterial strains; assay: MIC, panel of standard bacterial strains; format: cell-based
Description: as §4, §5

[27] = tested on: S. epidermidis KR 4268 830/19; assay: MIC microdilution, clinical isolate; format: cell-based; conditions: Staphylococcus epidermidis, KR4268830/19
[28] = tested on: E. coli NCTC 8196; assay: MIC microdilution, standard strain; format: cell-based; conditions: Escherichia coli, NCTC8196; E. coli NCTC 8196, 18 h, 35 °C; read-out: MIC
[29] = tested on: S. aureus 203/19; assay: MIC microdilution, clinical isolate; format: cell-based; conditions: Staphylococcus aureus
[30] = tested on: S. epidermidis T 5253 845/19; assay: MIC microdilution, clinical isolate; format: cell-based; conditions: Staphylococcus epidermidis, T5253845/19

`Fc1ccccc1-n1nnnc1NCc1ccco1` [Compound 6, 1-(2-fluorophenyl)-N-(furan-2-ylmethyl)-1H-tetrazol-5-amine] showed an MIC [1] of 4 µg/mL (≈ 15.4 µM), an MIC [2] of 16 µg/mL (≈ 61.7 µM) and an IC50 [3] greater than 100 µM. The IC50 [4] was greater than 100 µM, the IC50 [5] was greater than 100 µM and the IC50 [6] was greater than 100 µM. The MIC [7] was 2 µg/mL (≈ 7.71 µM), the MIC [8] was 8 µg/mL (≈ 30.9 µM) and the MIC [9] was 4 µg/mL (≈ 15.4 µM). The MIC ([10]; Staphylococcus aureus, rest of studied Staphylococci, except S. aureus 155/6, read-out: MICs) was 8 µg/mL (≈ 30.9 µM), the MIC ([10]; Staphylococcus epidermidis, four hospital S. epidermidis isolates, read-out: MIC) was 4 µg/mL (≈ 15.4 µM) and the “growth inhibitory strength relative to Ciprofloxacin” value ([10]; two clinical S. epidermidis strains) was 8–16 fold. It also gave an MIC [11] of 8 µg/mL (≈ 30.9 µM), an MIC [12] of 32 µg/mL (≈ 123 µM) and an MIC [13] of 4 µg/mL (≈ 15.4 µM). The MIC [14] was 16 µg/mL (≈ 61.7 µM), the MIC [15] was 8 µg/mL (≈ 30.9 µM) and the MIC [16] was 8 µg/mL (≈ 30.9 µM). For the same compound, the MIC [17] was 8 µg/mL (≈ 30.9 µM), the MIC [18] was 512 µg/mL (≈ 1970 µM) and the MIC [19] was 16 µg/mL (≈ 61.7 µM). The MIC [20] was 8 µg/mL (≈ 30.9 µM), the MIC [21] was 4 µg/mL (≈ 15.4 µM) and the MIC [22] was 8 µg/mL (≈ 30.9 µM). For the same compound, the MIC [23] was 512 µg/mL (≈ 1970 µM), the MIC [24] was 8 µg/mL (≈ 30.9 µM) and the “strength relative to Ciprofloxacin” value ([25]; S. epidermidis KR 4047 825/19 isolate) was “half of the Ciprofloxacin strength”. The MIC ([25]; Staphylococcus epidermidis, KR4047825/19, clinical isolate S. epidermidis KR 4047 825/19) was 8 µg/mL (≈ 30.9 µM), the MIC ([26]; some Gram-negative strains) was 16 µg/mL (≈ 61.7 µM) and the “MIC (range)” value ([26]; standard Staphylococci) was 8 to 32 µg/mL. It also gave an MIC [27] of 8 µg/mL (≈ 30.9 µM), an MIC [28] of 512 µg/mL (≈ 1970 µM) and an MIC [29] of 8 µg/mL (≈ 30.9 µM). The MIC [30] was 8 µg/mL (≈ 30.9 µM).
